The assay addresses PfFNT G107S (Plasmodium falciparum, UniProt O77389, G107S). The assay is described as follows: cell-based. Particulars: for IC50: read-out: IC50 (PfFNT G107S / yeast).

Turning to `COc1ccc(C(=O)/C=C(\O)C(F)(F)C(F)(F)F)cc1` [BH-296], the IC50 amounted to 2.3 µM. On to `CC(=O)C=C(O)C(F)(F)C(F)(F)F` [Pharmacophore, 5,5,6,6,6-pentafluoro-4-hydroxyhex-3-en-2-one], for which the IC50 was found to be 8.1 µM. In addition, under “compared with BH-296”, the “relative efficiency in blocking PfFNT G107S (mutant versus wildtype)” value is “four times better relative efficiency than BH-296”. With `COc1ccc2c(c1)OC(O)(C(F)(F)C(F)(F)F)CC2=O` (stereo not shown) [MMV007839], the IC50 turned out to be 21 µM.

Source of the values: publication PMC5298233, “Substrate-analogous inhibitors exert antimalarial action by targeting the Plasmodium lactate transporter PfFNT at nanomolar scale” (PLoS Pathogens, 2017).
